Test results published in paper PMC5349917, “Octreotide-periplocymarin conjugate prodrug for improving targetability and anti-tumor efficiency: synthesis, in vitro and in vivo evaluation” (Oncotarget, 2016).
“And” between values parts separate entries of the source, which are not always exact repeats. Equal entries are not always repeated. Where two headings read alike, the source gives them in different places.

How the values were obtained:
[1] = Tissue distribution in H22 cell tumor bearing mice; format: in vivo, mouse; conditions: for AUC0–t Heart / AUC0–t Kidney / AUC0–t Liver / AUC0–t Lung / AUC0–t Plasma / AUC0–t Spleen / AUC0–t Tumor: level of PPM, 4 mg/kg (PPM or equivalent), H22 tumor-bearing mice, 0-4 h
Experimental: Male Kunming strain mice (KM, 18–22 g) were purchased from Qinglongshan, Experimental Animal Center (ZhenJiang, China). Animal experiments were conducted under principles of good laboratory animal care, and approved by the Ethical Committee for Laboratory Animals Care and Use of Jiangsu University. Mouse […] (H22) cells were purchased from the Cell Bank of Academy of Science (Shanghai, China).
Approximately 1 × 10^7 H22 cells suspended in PBS (pH 7.4) were inoculated subcutaneously into the right hind leg. When the tumor volume reached 1000 mm^3 (around 7 days), mice were intravenously injected with PPM (at a dose of 4 mg/kg) or its equivalent OCT(Phe)-S-PPM via the tail vein (n = 5). At indicated time periods (0.16, 0.50, 1, 2, 3 and 4 h) after injection, blood samples were collected and mice were then sacrificed by cervical dislocation to obtain the heart, liver, spleen, lung, kidney and tumor tissues. All the samples were then washed with ice-cold saline to remove the excess fluid, weighed and stored at –20°C. The thawed tissue was homogenized in 0.9% sodium chloride solution to obtain 0.2 g/mL tissues homogenate. This was followed by the addition of bufalin (50 μl, 5 μg/ml) to the tissues (0.2 ml) with uniform mixing. Ethyl acetate (1.2 ml) was then added to the resulting mixture and thoroughly mixed for 5 min. The total supernatant or organic layer was separated by centrifugation at 3000 rpm for 10 min and transferred to a clean tube. The supernatant was dried with nitrogen at 40°C on water bath to obtain the residue, which was later reconstituted in a 0.2 mL of mobile phase solution. After centrifugation at 20,000 rpm for 10 min, the supernatant was analyzed by HPLC. The mobile phase consisted of acetonitrile and water (38:62, v/v, pH = 3.0, adjusted by H3PO4). The flow rate was 1.0 mL·min^-1 and the detection wavelength was 220 nm. Other conditions included injection volume (20 μl), column temperature (25°C) and detection sensitivity (0.02 AUFS). The retention time of PPM and Bufalin was about 7.2 and 10.8 min, respectively. The calibration curve was A = 0.9958C-0.0299 (A represented the peak area ratio of PPM and Bufalin, while C was the concentration of PPM) and was linear in the range of 0.05–10 μg/mL with a correlation coefficient of R = 0.9995.

[2] = test system: H22 tumor; experiment: Anti-tumor efficacy in H22 tumor-bearing mice; format: in vivo, mouse; conditions: H22 tumor Kunming mice, 5 times; for final tumor weight: control 0.876 ± 0.154 g
Experimental: (§1) Treatment was initiated when the tumor diameter reached about 0.5 cm (around 3 days). Mice were randomly assigned to four groups (n = 6) namely the control, PPM, OCT and OCT(Phe)-S-PPM groups. Treatment were administered via tail vein at a dose of 4 mg/kg every other day during the experimental period for 5 times. The control group received corresponding amounts of blank injection (ethanol/Cremophor EL, v/v, 1/1, diluted 20 times with normal saline before the injection). Their weights were measured daily and tumor size was measured (major and minor axis) with a vernier caliper thereafter and at the end of the experiment. Tumor volumes were calculated using the formula: a^2×b×0.52, where a and b refer to the longest and shortest diameter, respectively. Tumor tissues were removed from the sacrificed mice and weighed to calculate the tumor inhibition rate (TIR (%) = (1-Wt/Wc) × 100%, where Wt and Wc are the mean tumor weights of the treated groups and the negative control group, respectively. Moreover, the heart, liver and tumor were rinsed with normal saline, fixed in 10% formalin, and then embedded in paraffin blocks for later slicing and staining with hematoxylin and eosin (H&E). Finally, the sections were observed under a microscope for histopathological evaluations

[3] = test system: HepG2 hepatoma cells; experiment: MTT growth inhibition assay, HepG2 cells; format: cell-based, human
Experimental: (§2) To test the antitumor activities of the synthesized compounds, we evaluated antiproliferative activities of these compounds against human cancer cell lines (Breast cancer cells, MCF-7; Hepatoma cells, HepG2) and human normal cell line (Liver cells, L-02), using the MTT assay as reported in previous studies. Both cell lines were obtained from the Cell Bank of Academy of Science (Shanghai, China).
(§3) After incubation, 20 μL of MTT (5 mg/mL in pH 7.4 PBS) was added to each well, and the plates further incubated at 37°C for 4 h. The medium was then replaced with 100 μL DMSO. The optical density was measured by Microplate Reader (Thermo Electron Corporation) at 595 nm.
(§4) Statistical significance of differences between treatment groups in the biodistribution and anti-tumor effect were assessed using an unpaired Student’s t-test. A p-value of less than 0.05 was considered significant.

[4] = Toxicity in H22 tumor-bearing mice (serum AST, ALT, ALP, body weight, heart and liver histopathology); format: in vivo, mouse; conditions: for pathological images of heart sections / pathological images of liver sections: HE staining, after treatment for ten days; for ALT / AST / ALP: serum, mice sacrificed 24 h after the last administration; for ALT: control 26.86 ± 6.44; for AST: control 50.55 ± 8.82; for ALP: control 112.06 ± 14.29
Experimental: as §1

[5] = test system: MCF-7 breast cancer cells; experiment: MTT growth inhibition assay, MCF-7 cells; format: cell-based, human
Experimental: as §2, §3, §4

[6] = test system: L-02 cells; experiment: cells; format: cell-based, human
Experimental: as §2
(§5) In brief, the cells were seeded into a 96-well plate at a density of 2.5 × 10^4 cells/well and incubated with OCT modified PPMs containing various concentrations (ranging from 0.001 to 50.0 μM) for 72 h. After incubation, 20 μL of MTT (5 mg/mL in pH 7.4 PBS) was added to each well, and the plates further incubated at 37°C for 4 h. The medium was then replaced with 100 μL DMSO. The optical density was measured by Microplate Reader (Thermo Electron Corporation) at 595 nm. The cell inhibition rate (IR) was calculated as follows: IR (%) = 1−A/A1×100%, where A refers to the average absorbance intensity of treated group and A1 refers to average absorbance intensity of untreated control group (the vehicle control group).
(§6) Statistical significance of differences between treatment groups in the biodistribution and anti-tumor effect were assessed using an unpaired Student’s t-test. A p-value of less than 0.05 was considered significant. 50% inhibiting concentration (IC50) of the sample was calculated with the aid of Curve-Expert software (version 1.3; Daniel G. Hyams, Hixson, TN, USA).

[7] = cited from earlier work
[8] = test system: MFC murine gastric carcinoma cells; experiment: In vitro cytotoxicity on MFC cells; format: cell-based, mouse; conditions: 72 h of incubation
Experimental: as §5, §6

[9] = test system: PC3, U937, HCT-8, Bel-7402, BGC823, A549 and A2780 cell lines; design: method as in PMID 17366373; conditions: PC3, U937, HCT-8, Bel-7402, BGC823, A549 and A2780 cell lines in vitro; read-out: IC50 values, inhibition of proliferation; cited from earlier work
[10] = MTT, 72 h of incubation, read-out: IC50 MCF-7

Row | Molecule | AUC0–t Heart ([1]; i.v.) | AUC0–t Kidney ([1]; i.v.) | AUC0–t Liver ([1]; i.v.) | AUC0–t Lung ([1]; i.v.) | AUC0–t Plasma ([1]; i.v.) | AUC0–t Spleen ([1]; i.v.) | AUC0–t Tumor ([1]; i.v., 4 mg/kg) | final tumor weight ([2]; 4 mg/kg i.v. every other day) | pathological images of heart sections [4] | pathological images of liver sections [4] | ALT [4] | AST [4] | ALP [4] | IC50 [5, 10] | other results
1 | CO[C@H]1C[C@H](O[C@H]2CC[C@]3(C)[C@H]4CC[C@]5(C)[C@@H](C6=CC(=O)OC6)CC[C@]5(O)[C@@H]4CC[C@]3(O)C2)O[C@H](C)[C@H]1OC(=O)CCC(=O)N[C@H](Cc1ccccc1)C(=O)N[C@H]1CSSC[C@@H](C(=O)N[C@H](CO)[C@@H](C)O)NC(=O)[C@H]([C@@H](C)O)NC(=O)[C@H](CCCCN)NC(=O)[C@@H](Cc2c[nH]c3ccccc23)NC(=O)[C@H](Cc2ccccc2)NC1=O [OCT(Phe)-S-PPM] | 1.315 ± 0.239 µg·h/g | 1.152 ± 0.132 µg·h/g | 1.441 ± 0.202 µg·h/g | 0.839 ± 0.083 µg·h/g | 1.409 ± 0.196 µg·h/g | 0.632 ± 0.079 µg·h/g | 1.338 µg·h/g and 1.338 ± 0.195 µg·h/g | 0.287 ± 0.069 g | no evident differences from the control group | no evident differences from the control group | 23.25 ±5.76 U/L | 56.83 ± 7.34 U/L | 124.90 ± 27.23 U/L |  | concentration in tumor tissue ([1]; 15 min post injection, i.v.): 0.168 µg/g; maximum concentration in tumor tissue ([1]; i.v., reached at 1 h): 0.618 µg/g; AUC0–t in plasma, fold higher than that of PPM ([1]; i.v., vs PPM): 1.73 fold; AUC0–t in tumor, fold higher than that of PPM ([1]; i.v., vs PPM): 2.17 fold; total AUC0~t of heart, fold lower than that of PPM ([1]; i.v., vs PPM, P < 0.01): 0.77 fold; total AUC0~t of liver, fold lower than that of PPM ([1]; i.v., vs PPM, P < 0.01): 0.73 fold; reduction of tumor volume compared to PPM (average) ([2]; equimolar dose of PPM 4 mg/kg, i.v. every other day): 1.56 fold; enhancement of cytotoxicity of PPM when conjugated with Phe-OCT ([3]; HepG2, vs PPM): 1.88 fold
2 | C[C@@H](O)[C@@H]1NC(=O)[C@H](CCCCN)NC(=O)[C@@H](Cc2c[nH]c3ccccc23)NC(=O)[C@H](Cc2ccccc2)NC(=O)[C@@H](NC(=O)[C@H](N)Cc2ccccc2)CSSC[C@@H](C(=O)N[C@H](CO)[C@@H](C)O)NC1=O [OCT, Octreotide] |  |  |  |  |  |  |  | 0.765 ± 0.126 g |  |  | 34.48 ± 6.28 U/L | 51.25 ± 5.2 U/L | 129.48 ± 18.54 U/L |  | IC50 ([5]; 72 h): > 50000 nM; IC50 ([6]; 72 h): > 50000 nM; IC50 ([3]; 72 h): > 50000 nM; plasma half-life, times more than endogenous somatostatin [7]: 30 times
3 | CO[C@H]1C[C@H](O[C@H]2CC[C@]3(C)[C@H]4CC[C@]5(C)[C@@H](C6=CC(=O)OC6)CC[C@]5(O)[C@@H]4CC[C@]3(O)C2)O[C@H](C)[C@H]1O [PPM, periplocymarin] | 1.692 ± 0.283 µg·h/g | 1.773 ± 0.393 µg·h/g | 1.967 ± 0.321 µg·h/g | 0.457 ± 0.092 µg·h/g | 0.812 ± 0.143 µg·h/g | 0.257 ± 0.086 µg·h/g | 0.614 µg·h/g and 0.614 ± 0.128 µg·h/g | 0.423 ± 0.087 g | irregularly arranged myocardial cells and slightly lymphocyte infiltration in the interstitial tissue of the myocardium | obvious soma shrinking, dissociation of hepatic cord, dilation of hepatic sinusoids and lymphocytosis | 62.43 ± 13.52 U/L | 68.21 ± 8.95 U/L | 184.23 ± 21.48 U/L | 35.9 nM | Kp at 15 min ([1]; male, Kunming, mouse, heart / blood, iv, 15 min post injection, i.v. 4 mg/kg, read-out: ratio of the PPM concentration in heart and blood): 1.18; Kp at 1 h ([1]; male, Kunming, mouse, heart / blood, iv, 1 h post injection, i.v. 4 mg/kg, read-out: ratio of the PPM concentration in heart and blood): 5.21; concentration at 15 min ([1]; male, Kunming, mouse, tumor, iv, 4 mg/kg, 15 min post injection): 917 ng/g; IC50 ([5]; Homo sapiens, MCF7, 72 h, MTT, 72 h of incubation, read-out: IC50 MCF-7): 35.9 nM; tumor inhibition rate ([2]; 4 mg/kg i.v. every other day, from tumor weights): 51.71%; IC50 ([6]; Homo sapiens, L02, MTT, 72 h of incubation, read-out: IC50 L-02): 128 nM; IC50 ([3]; Homo sapiens, HepG2, MTT, 72 h of incubation, read-out: IC50 HepG2): 138 nM; average body weight ([4]; during treatment, vs control group, P < 0.01): less than that of the control group; IC50 ([8]; Mus musculus): 38.4 nM; IC50 [9]: 20 to 290 nM
4 | C[C@]12CC[C@H](O)C[C@@]1(O)CC[C@@H]1[C@@H]2CC[C@]2(C)[C@@H](C3=CC(=O)OC3)CC[C@]12O [periplogenin] |  |  |  |  |  |  |  |  |  |  |  |  |  | 902 nM | IC50 ([6]; MTT, 72 h of incubation, read-out: IC50 L-02): 406 nM; IC50 ([3]; MTT, 72 h of incubation, read-out: IC50 HepG2): 580 nM; IC50 [8]: 509 nM
5 | Somatostatin [somatostatins] |  |  |  |  |  |  |  |  |  |  |  |  |  |  | half-life in circulation ([7]; in vivo): 1 to 3 min
